Earlier results in patent US20040229941A1, “Analeptic and antidepressant combinations” (Cephalon, Inc., priority 2003, published 2004).

Settings: at 6 weeks of antidepressant therapy

Which response does the source give for `CNCCC(Oc1ccc(C(F)(F)F)cc1)c1ccccc1` (stereo not shown) [fluoxetine] here?
The response was “about 50%”.
